Data on 27 compounds can be found in patent US10544083B2, “GPBP inhibition using Q2 peptidomimetics” (FibroStatin, S.L., priority 2009, dated 2020).

Experiment [1] addresses T1, yeast recombinant FLAG-GPBP (Homo sapiens, UniProt Q9Y5P4).
T1 construct: FLAG; made in house
T1 sequence (Q9Y5P4 1-624): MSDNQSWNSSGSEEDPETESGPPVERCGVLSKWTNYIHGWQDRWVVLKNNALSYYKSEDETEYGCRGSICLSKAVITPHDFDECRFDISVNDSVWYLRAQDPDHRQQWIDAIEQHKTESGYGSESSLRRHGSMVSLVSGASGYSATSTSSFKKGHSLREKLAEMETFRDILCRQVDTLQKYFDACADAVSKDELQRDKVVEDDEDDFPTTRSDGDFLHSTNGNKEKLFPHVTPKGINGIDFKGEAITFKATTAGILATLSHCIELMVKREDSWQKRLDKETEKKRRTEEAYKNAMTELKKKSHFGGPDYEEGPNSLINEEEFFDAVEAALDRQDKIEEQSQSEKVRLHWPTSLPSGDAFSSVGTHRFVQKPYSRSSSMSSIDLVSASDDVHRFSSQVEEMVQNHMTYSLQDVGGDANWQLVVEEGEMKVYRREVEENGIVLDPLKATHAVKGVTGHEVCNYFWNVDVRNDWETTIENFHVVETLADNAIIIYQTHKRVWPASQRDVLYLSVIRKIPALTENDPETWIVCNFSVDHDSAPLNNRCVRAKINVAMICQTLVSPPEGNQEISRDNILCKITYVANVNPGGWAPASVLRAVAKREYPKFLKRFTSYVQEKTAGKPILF
Description: FLAG-GPBP auto-phosphorylation assay. The format is biochemical. Particulars: 10 μM compound, 5 min at 30° C., autoradiography bands quantified, vehicle = 100; read-out: Relative kinase activity (% referred to vehicle). An excerpt:
Goodpasture antigen-binding protein (GPBP) is a non-conventional Ser/Thr kinase which targets and phosphorylates the non-collagenous (NC1) domain of α3 chain of human type IV collagen [α3(IV)NC1], known as Goodpasture antigen. GPBP expression has been associated with antibody-mediated glomerulonephritis, rheumatoid arthritis and drug-resistance cancer. We have reported that GPBP self-interacts, that aggregation and autophosphorylation regulate kinase activity, and that the Q2 peptide inhibits autophosphorylation and GPBP kinase activity (WO 00/50607). The GPBP kinase inhibitory activity of a number of terphenylic compounds mimicking Q2, a peptide representing a critical GPBP motif which is relevant for GPBP quaternary structure stabilization, have been tested on GPBP autophosphorylation ability The autophosphorylation ability of GPBP has been used to test the GPBP kinase inhibitor activity of several terphenylic compounds (Scheme 18) derived from the chemical structure of Q2 peptide, which in turn represents GPBP peptidic sequence relevant for self-interaction.
Two hundred nanograms of yeast recombinant FLAG-GPBP were subjected to phosphorylation assays in absence (vehicle) or presence of a 10 μM concentration of each of the indicated Q2-peptidomimetic compounds or an intermediate of synthesis used as negative control (C), during 5 min at 30° C. Reactions were subjected to SDS-PAGE, Western blot and autoradiography. The bands in the autoradiography were quantified using Image-Quant TL software. The kinase activity of GPBP in the presence of the indicated compounds was referred to the sample containing the vehicle, which was given a value of 100.
Yeast recombinant FLAG-GPBP production and purification were also performed. GPBP autophosphorylation assay times were limited to 10 min at 30° C.

Experiment [2] concerns the target T2, GPBP (Homo sapiens, UniProt Q9Y5P4).
T2 sequence (Q9Y5P4 1-624): T1 sequence (Q9Y5P4 1-624)
Particulars: see U.S. Pat. No. 7,326,768; cited from earlier work.

Experiment [3] deals with T2, GPBP. Particulars: see U.S. Pat. No. 7,326,768; cited from earlier work. This is another data set of the same source.

As to `Cc1cccc(-c2ccc(-c3ccc(O)cc3CCC(=O)O)cc2CO)c1` [Compound 1a, 3-[4″-hydroxy-2′-(hydroxymethyl)-3-methyl-(1,1′;4′,1″)terphenyl-2″-yl]propionic acid], the activity at 10 µM in experiment [1] amounted to 34%.

As to `CCCOc1ccc(-c2ccc(-c3cccc(C)c3)c(C)c2)c(CCC(=O)O)c1` [Compound 24a, 3-[3,2′-dimethyl-4″-propoxy-(1,1′;4′,1″)terphenyl-2″-yl]propionic acid], the activity at 10 µM in experiment [1] stood at 73%.

As to `CCCOc1ccc(-c2ccc(-c3cccc(C(F)(F)F)c3)c(C)c2)c(CCC(=O)O)c1` [Compound 24c, 3-[2′-methyl-4″-propoxy-3-(trifluoromethyl)-(1,1′;4′,1″)terphenyl-2″-yl]propionic acid], in experiment [1], the activity at 10 µM was determined as 36%.

Turning to `COc1ccc(-c2ccc(-c3cccc(C(F)(F)F)c3)c(CO)c2)c(CCC(=O)O)c1` [Compound 22e, 3-[2′-(hydroxymethyl)-4″-methoxy-3-(trifluoromethyl)-(1,1′;4′,1″)terphenyl-2″-yl]propionic acid], the activity at 10 µM in experiment [1] stood at 129%.

Take `Cc1cc(-c2ccc(O)cc2CCC(=O)O)ccc1-c1cccc(C(F)(F)F)c1` [Compound 12b, 3-[4″-hydroxy-2′-methyl-3-(trifluoromethyl)-(1,1′;4′,1″)terphenyl-2″-yl]propionic acid]: in experiment [1], the activity at 10 µM amounted to 49%.

As for `O=C(O)CCc1cc(O)ccc1-c1ccc(-c2cccnc2)c(CO)c1` [Compound 1c, 3-[4-hydroxy-3′-(hydroxymethyl)-4′-(pyridin-3-yl)biphenyl-2-yl]propionic acid], the activity at 10 µM in experiment [1] came out at 58%.

In the case of `COc1ccc(-c2ccc(-c3cccnc3)c(C)c2)c(CCC(=O)O)c1` [Compound 22j, 3-[4-methoxy-3′-methyl-4′-(pyridin-3-yl)biphenyl-2-yl]propionic acid], the activity at 10 µM in experiment [1] turned out to be 50%.

For `COc1ccc(-c2ccc(-c3cccc(C(F)(F)F)c3)c(C)c2)c(CCC(=O)O)c1` [Compound 22f, 3-[2′-methyl-4″-methoxy-3-(trifluoromethyl)-(1,1′;4′,1″)terphenyl-2″-yl]propionic acid], the activity at 10 µM in experiment [1] was 41%.

On to `Cc1cccc(-c2ccc(-c3ccc(O)cc3CCC(=O)O)cc2CF)c1` [Compound 15a, 3-[2′-(fluoromethyl)-4″-hydroxy-3-methyl-(1,1′;4′,1″)terphenyl-2″-yl]propionic acid], for which the activity at 10 µM in experiment [1] worked out at 79%.

In the case of `COc1ccc(-c2ccc(-c3cccc(C)c3)c(C(F)F)c2)c(CCC(=O)O)c1` [Compound 22d, 3-[2′-(difluoromethyl)-4″-methoxy-3-methyl-(1,1′;4′,1″)terphenyl-2″-yl]propionic acid], the activity at 10 µM in experiment [1] was 79%.

In the case of `COc1ccc(-c2ccc(-c3cccnc3)c(CO)c2)c(CCC(=O)O)c1` [Compound 22i, 3-[3′-(hydroxymethyl)-4-methoxy-4′-(pyridin-3-yl)biphenyl-2-yl]propionic acid], the activity at 10 µM in experiment [1] amounted to 132%.

`O=C(O)CCc1cc(O)ccc1-c1ccc(-c2cccc(C(F)(F)F)c2)c(CO)c1` [Compound 1b, 3-[4″-hydroxy-2′-(hydroxymethyl)-3-(trifluoromethyl)-(1,1′;4′,1″)terphenyl-2″-yl]propionic acid]: the activity at 10 µM in experiment [1] came out at 131%.

`COc1ccc(-c2ccc(-c3cccnc3)c(C(F)F)c2)c(CCC(=O)O)c1` [Compound 22l, 3-[3′-(difluoromethyl)-4-methoxy-4′-(pyridin-3-yl)biphenyl-2-yl]propionic acid]: the activity at 10 µM in experiment [1] was determined as 136%.

Consider `COc1ccc(-c2ccc(-c3cccnc3)c(CF)c2)c(CCC(=O)O)c1` [Compound 22k, 3-[3′-(fluoromethyl)-4-methoxy-4′-(pyridin-3-yl)biphenyl-2-yl]propionic acid], for which the activity at 10 µM in experiment [1] stood at 135%.

Consider `O=C(O)CCc1cc(O)ccc1-c1ccc(-c2cccc(C(F)(F)F)c2)c(C(F)F)c1` [Compound 20b, 3-[2′-(difluoromethyl)-4″-hydroxy-3-(trifluoromethyl)-(1,1′;4′,1″)terphenyl-2″-yl]propionic acid], for which the activity at 10 µM in experiment [1] turned out to be 77%.

Regarding `COc1ccc(-c2ccc(-c3cccc(C)c3)c(CF)c2)c(CCC(=O)O)c1` [Compound 22c, 3-[2′-(fluoromethyl)-4″-methoxy-3-methyl-(1,1′;4′,1″)terphenyl-2″-yl]propionic acid], the activity at 10 µM in experiment [1] came out at 123%.

Take `Cc1cccc(-c2ccc(-c3ccc(O)cc3C(C)C)cc2CCC(=O)O)c1` [Compound 2a, 3-[4″-hydroxy-2″-isopropyl-3-methyl-(1,1′;4′,1″)terphenyl-2′-yl]propionic acid]: in experiment [1], the activity at 10 µM was 90%.

`O=C(O)CCc1cc(O)ccc1-c1ccc(-c2cccc(C(F)(F)F)c2)c(CF)c1` [Compound 15b, 3-[2′-(fluoromethyl)-4″-hydroxy-3-(trifluoromethyl)-(1,1′;4′,1″)terphenyl-2″-yl]propionic acid]: the activity at 10 µM in experiment [1] worked out at 21%.

As to `COc1ccc(-c2ccc(-c3cccc(C(F)(F)F)c3)c(C(F)F)c2)c(CCC(=O)O)c1` [Compound 22h, 3-[2′-(difluoromethyl)-4″-methoxy-3-(trifluoromethyl)-(1,1′;4′,1″)terphenyl-2″-yl]propionic acid], in experiment [1], the activity at 10 µM was 49%.

In the case of `Cc1cccc(-c2ccc(-c3ccc(O)cc3CCC(=O)O)cc2C)c1` [Compound 12a, 3-[4″-hydroxy-2′,3-dimethyl-(1,1′;4′,1″)terphenyl-2″-yl]propionic acid], in experiment [1], the activity at 10 µM stood at 53%.

“LATLSHCIELMVKR [Compound Q2, synthetic peptide representing the five-residue SHCIE motif of GPBP and flanking regions]”: in the experiment with GPBP [2], the “α3(IV)NC1 conformer production by GPBP” value is reported as “reduce α3(IV)NC1 conformer production”. The “inhibition of GPBP autophosphorylation” value with GPBP [3] is listed as “efficiently inhibited GPBP autophosphorylation”.

With `COc1ccc(-c2ccc(-c3cccc(C(F)(F)F)c3)c(CF)c2)c(CCC(=O)O)c1` [Compound 22g, 3-[2′-(fluoromethyl)-4″-methoxy-3-(trifluoromethyl)-(1,1′;4′,1″)terphenyl-2″-yl]propionic acid], the activity at 10 µM in experiment [1] came to 103%.

For `COc1ccc(-c2ccc(-c3cccc(C)c3)c(CO)c2)c(CCC(=O)O)c1` [Compound 22a, 3-[2′-(hydroxymethyl)-4″-methoxy-3-methyl-(1,1′;4′,1″)terphenyl-2″-yl]propionic acid], in experiment [1], the activity at 10 µM came to 118%.

With `Cc1cccc(-c2ccc(-c3ccc(OCC(=O)O)cc3CCC(=O)O)cc2C)c1` [Compound 24b, 3-[4″-(carboxymethoxy)-3,2′-dimethyl-(1,1′;4,1″)terphenyl-2″-yl]propionic acid], in experiment [1], the activity at 10 µM worked out at 64%.

For the compound `Cc1cccc(-c2ccc(-c3ccc(O)cc3CCC(=O)O)cc2C(F)F)c1` [Compound 20a, 3-[2′-(difluoromethyl)-4″-hydroxy-3-methyl-(1,1′;4′,1″)terphenyl-2″-yl]propionic acid], the activity at 10 µM in experiment [1] worked out at 61%.

As to `COc1ccc(-c2ccc(-c3cccc(C)c3)c(C)c2)c(CCC(=O)O)c1` [Compound 22b, 3-[4″-methoxy-3,2′-dimethyl-(1,1′;4′,1″)terphenyl-2″-yl]propionic acid], the activity at 10 µM in experiment [1] worked out at 44%.

With `COc1ccc(-c2ccc(-c3ccc(OC)c(C)c3)c(C)c2)c(CCC(=O)O)c1` [Compound 32, 3-[4,4″-dimethoxy-3,2′-dimethyl-(1,1′;4′,1″)terphenyl-2″-yl]propionic acid], in experiment [1], the activity at 10 µM came to 28%.
